The subject of this test is FADU xenografts. Kind of test: Intratumoral NanoLuc mRNA delivery into FADU xenografts, bioluminescence. The class given is in vivo, Nu/J mice. The note with it: LNPs containing MC3, cKK-E12, SM-102 or C12-200. The text has this: FIG. 5A illustrates different LNPs formulated to carry NanoLuc reporter mRNA to evaluate effective intratumoral injections into FADU xenografts. To identify the most suitable ionizable lipid for intratumoral delivery, an in vivo imaging system was used to quantify the bioluminescence resulting from the functional delivery of NanoLuc mRNA using LNPs containing four different ionizable lipids: MC3, cKK-E12, SM-102, and C12-200.

This note sets out measurements from patent US20260090997A1, “Lipid Nanoparticles Comprising Nucleic Acids Encoding Therapeutic Genes and Uses in Medical Methods” (priority 2022, published 2026).

As for `CCCCCCCCCCC(O)CN(CCN1CCN(CCN(CC(O)CCCCCCCCCC)CC(O)CCCCCCCCCC)CC1)CCN(CC(O)CCCCCCCCCC)CC(O)CCCCCCCCCC` (stereo not shown) [C12-200], the “bioluminescence from functional delivery of NanoLuc mRNA, comparison of ionizable lipids” value is “optimal ionizable lipid”.
